From patent US20090297638A1

What was measured:
[1] = women at high risk for breast cancer; cited from earlier work
TNF-RE tkLuc = TNF-RE tkLuc reporter, effect of antiestrogens (ER subtype not given); type: cell-based, human; details: for effect on the repression induced by E2: TNF-RE tkLuc, with E2; for activation of TNF-RE tkLuc: antiestrogens, in contrast to E2
Excerpt: Plasmid Construction. […] ERβmutants were created with QuikChange site-directed mutagenesis kits (Stratagene), by using oligonucleotides containing the mutation. The mutants were sequenced with Sequenase kits (Amersham Pharmacia) to verify the presence of the mutation.

[2] = five years of therapy; cited from earlier work
human ERβ = target: T1, human ERβ (Homo sapiens, UniProt Q92731); assay: ERE-tk-Luc luciferase assay in U2OS osteosarcoma cells, ERβ; type: cell-based; details: co-administration with the extract (Herb 16)
T1 construct: expressed in transfected cells; host or cells: U2OS (human osteosarcoma)
T1 sequence (Q92731 whole entry): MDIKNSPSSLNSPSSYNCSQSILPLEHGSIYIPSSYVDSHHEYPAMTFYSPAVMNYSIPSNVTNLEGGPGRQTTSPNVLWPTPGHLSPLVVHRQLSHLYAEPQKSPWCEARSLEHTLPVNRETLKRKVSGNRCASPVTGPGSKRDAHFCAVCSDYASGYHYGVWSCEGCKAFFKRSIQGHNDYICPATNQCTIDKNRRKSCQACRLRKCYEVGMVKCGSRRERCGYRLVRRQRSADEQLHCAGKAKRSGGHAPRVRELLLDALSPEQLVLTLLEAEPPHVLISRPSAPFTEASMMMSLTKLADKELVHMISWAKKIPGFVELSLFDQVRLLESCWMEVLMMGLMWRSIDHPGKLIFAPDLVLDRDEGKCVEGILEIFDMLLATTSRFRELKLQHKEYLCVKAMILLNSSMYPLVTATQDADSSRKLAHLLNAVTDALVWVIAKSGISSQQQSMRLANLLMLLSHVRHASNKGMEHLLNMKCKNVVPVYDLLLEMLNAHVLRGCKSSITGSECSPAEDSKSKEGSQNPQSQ
Description: Preparation of Anemarrhena Asphodeloides Bge. from the Liliaceae Family: Samples of Anemarrhena asphodeloides Bge. from the Liliaceae Family were ground to fine powder using a commercial electric herb grinder; 5 grams were weighed and extracted in a) 50 ml of 100% EtOH or b) 50 ml of distilled H2O was simmered at 75° Celsius for 45 minutes. The extracts (a and b) were than decanted and only the soluble material was used.

| effect on extract-stimulated ERE-tk-Luc expression (human ERβ; FIG. 5) | effect on extract-stimulated ERE-tk-Luc expression (human ERβ; FIG. 5, listed as Raloxifene) | effect on extract-stimulated ERE-tk-Luc expression (human ERβ; FIG. 5, listed as ICI) | Compound | reduction of the risk of primary invasive breast cancer [1] | effect on the repression induced by E2 (TNF-RE tkLuc) | activation of TNF-RE tkLuc (TNF-RE tkLuc) | reduction of mortality from breast cancer [2] | reduction of the risk of recurrences [2] |
| --- | --- | --- | --- | --- | --- | --- | --- | --- |
|  |  |  | CC/C(=C(\c1ccccc1)c1ccc(OCCN(C)C)cc1)c1ccccc1 [tamoxifen] | 49% | abolished the repression induced by E2 | 2 fold | 22% | 42% |
| counteracted | attenuated |  | O=C(c1ccc(OCCN2CCCCC2)cc1)c1c(-c2ccc(O)cc2)sc2cc(O)ccc12 [raloxifene] |  | abolished the repression induced by E2 | 2 fold |  |  |
| counteracted |  | attenuated | C[C@]12CC[C@@H]3c4ccc(O)cc4C[C@@H](CCCCCCCCC[S+]([O-])CCCC(F)(F)C(F)(F)F)[C@H]3[C@@H]1CC[C@@H]2O (stereo partly shown) [ICI 182780] |  | abolished the repression induced by E2 | 2 fold |  |  |
